{"source": "ChEMBL document CHEMBL1143399", "about": "“A small-molecule nitroimidazopyran drug candidate for the treatment of tuberculosis” (Nature, 2000)", "type_in_all_cases": "functional", "key": {"[1]": {"tested_on": "Mycobacterium tuberculosis", "assay": "Antimycobacterial activity against mono-rifampin-resistant Mycobacterium tuberculosis TN675"}, "[2]": {"tested_on": "Mycobacterium tuberculosis", "assay": "Antimycobacterial activity against mono-rifampin-resistant Mycobacterium tuberculosis TN994"}, "[3]": {"tested_on": "Mycobacterium tuberculosis", "assay": "Antimycobacterial activity against multidrug-resistant Mycobacterium tuberculosis TN565"}, "[4]": {"tested_on": "Mycobacterium tuberculosis", "assay": "Antimycobacterial activity against multidrug-resistant Mycobacterium tuberculosis TN772"}, "[5]": {"tested_on": "Mycobacterium tuberculosis", "assay": "Antimycobacterial activity against multidrug-resistant Mycobacterium tuberculosis TN1618"}, "[6]": {"tested_on": "Mycobacterium tuberculosis", "assay": "Antimycobacterial activity against multidrug-resistant Mycobacterium tuberculosis TN715"}, "[7]": {"tested_on": "Mycobacterium tuberculosis", "assay": "Antimycobacterial activity against multidrug-resistant Mycobacterium tuberculosis TN1195"}, "[8]": {"tested_on": "Mycobacterium tuberculosis", "assay": "Antimycobacterial activity against multidrug-resistant Mycobacterium tuberculosis TN2557"}, "[9]": {"tested_on": "Mycobacterium tuberculosis", "assay": "Antimycobacterial activity against multidrug-resistant Mycobacterium tuberculosis TN768"}, "[10]": {"tested_on": "Mycobacterium tuberculosis", "assay": "Antimycobacterial activity against multidrug-resistant Mycobacterium tuberculosis TN1314"}, "[11]": {"tested_on": "Mycobacterium tuberculosis", "assay": "Antimycobacterial activity against multidrug-resistant Mycobacterium tuberculosis TN1811"}, "[12]": {"tested_on": "Mycobacterium tuberculosis", "assay": "Antimycobacterial activity against multidrug-resistant Mycobacterium tuberculosis TN576"}, "[13]": {"tested_on": "Mycobacterium tuberculosis", "assay": "Antimycobacterial activity against multidrug-resistant Mycobacterium tuberculosis TN702"}}, "data": [{"smiles": "NNC(=O)c1ccncc1", "note": "[ISONIAZID]", "values": [{"measurement": "MIC", "setting": "[1]", "value": 0.03, "unit": "µg/mL"}, {"measurement": "MIC", "setting": "[2]", "value": 0.03, "unit": "µg/mL"}]}, {"smiles": "O=[N+]([O-])c1cn2c(n1)OC[C@@H](OCc1ccc(OC(F)(F)F)cc1)C2", "note": "[PRETOMANID]", "values": [{"measurement": "MIC", "setting": "[3]", "value": 0.06, "unit": "µg/mL"}, {"measurement": "MIC", "setting": "[4]", "value": 0.03, "unit": "µg/mL"}, {"measurement": "MIC", "setting": "[5]", "value": 0.06, "unit": "µg/mL"}, {"measurement": "MIC", "setting": "[6]", "value": 0.06, "unit": "µg/mL"}, {"measurement": "MIC", "setting": "[7]", "value": 0.25, "unit": "µg/mL"}, {"measurement": "MIC", "setting": "[8]", "value": 0.13, "unit": "µg/mL"}, {"measurement": "MIC", "setting": "[9]", "value": 0.06, "unit": "µg/mL"}, {"measurement": "MIC", "setting": "[1]", "value": 0.015, "unit": "µg/mL"}, {"measurement": "MIC", "setting": "[10]", "value": 0.03, "unit": "µg/mL"}, {"measurement": "MIC", "setting": "[2]", "value": 0.03, "unit": "µg/mL"}, {"measurement": "MIC", "setting": "[11]", "value": 0.03, "unit": "µg/mL"}, {"measurement": "MIC", "setting": "[12]", "value": 0.06, "unit": "µg/mL"}, {"measurement": "MIC", "setting": "[13]", "value": 0.25, "unit": "µg/mL"}]}]}
